Test system: germs
Test: Prevention of colonisation of the PMMA bone cement surface with germs (FIGS. 1a and 1b)
Assay type: cell-based
Details: 0.155% by weight admixed with PMMA bone cement (PALAMED plain); compared with admixing of 0.86% by weight of gentamicin

## polyhexamethylenebiguanide
  biological efficacy in preventing colonisation of the cement surface with germs: same (or higher) biological efficacy

From US20060275339A1, “Use of antiseptic active principles in pmma bone cements” (Biomet Deutschland, priority 2003, published 2006)
